The test system of the assay is Bacteria. The experiment in a line: Bacterial minimum inhibitory concentration. It is filed as functional.

Molecules are shown by their SMILES. Where only a bound is given, the exact number is not on record here.

On to `Cc1c(F)c(N2CCNC(C)C2)cc2c1c(=O)c(C(=O)O)cn2C1CC1` (stereo unspecified) [GREPAFLOXACIN], for which the MIC was less than 2.4 µM.

(Values after ChEMBL document CHEMBL1145042, “Understanding the structure-activity relationship of the human ether-a-go-go-related gene cardiac K+ channel. A model for bad behavior” (J Med Chem, 2003).)
